# Results as given in ChEMBL document CHEMBL5728000, “GCN2 inhibitors and uses thereof” (2020).
# pKi: −log10 of the molar value.
# Target: eIF-2-alpha kinase GCN2 (Homo sapiens, UniProt Q9P2K8)
# Experiment: Enzyme Inhibition Assay: An assay buffer containing GCN2 kinase and (RS)7 was prepared. 4.7 μL of this stock solution was placed per well of a black, low volume, 384-well microtitre plate (e.g. catalogue number 3676, Corning Inc., NY). To this was added […] of DMSO containing serial dilutions of the test compound (typical final concentrations of test compound were 0 to 8 μM). The plate was incubated for 10 minutes at 25° C. prior to the addition of 4.7 μL of ATP stock buffer to initiate the enzyme reaction. The reaction was allowed to proceed for 1 hour at 25° C., prior to the addition of 10 μL detection buffer (consisting of appropriate concentrations of ADP2 antibody and ADP Alexa633 tracer in 1× stop and detect buffer as supplied by BellBrook Labs). The reaction was left to incubate for 1 hour at 25° C., prior to measuring the fluorescence polarisation signal (mP) in each well using a PHERAstar FS reader (BMG Labtech, Germany).
# eIF-2-alpha kinase GCN2, sequence (Q9P2K8 whole entry): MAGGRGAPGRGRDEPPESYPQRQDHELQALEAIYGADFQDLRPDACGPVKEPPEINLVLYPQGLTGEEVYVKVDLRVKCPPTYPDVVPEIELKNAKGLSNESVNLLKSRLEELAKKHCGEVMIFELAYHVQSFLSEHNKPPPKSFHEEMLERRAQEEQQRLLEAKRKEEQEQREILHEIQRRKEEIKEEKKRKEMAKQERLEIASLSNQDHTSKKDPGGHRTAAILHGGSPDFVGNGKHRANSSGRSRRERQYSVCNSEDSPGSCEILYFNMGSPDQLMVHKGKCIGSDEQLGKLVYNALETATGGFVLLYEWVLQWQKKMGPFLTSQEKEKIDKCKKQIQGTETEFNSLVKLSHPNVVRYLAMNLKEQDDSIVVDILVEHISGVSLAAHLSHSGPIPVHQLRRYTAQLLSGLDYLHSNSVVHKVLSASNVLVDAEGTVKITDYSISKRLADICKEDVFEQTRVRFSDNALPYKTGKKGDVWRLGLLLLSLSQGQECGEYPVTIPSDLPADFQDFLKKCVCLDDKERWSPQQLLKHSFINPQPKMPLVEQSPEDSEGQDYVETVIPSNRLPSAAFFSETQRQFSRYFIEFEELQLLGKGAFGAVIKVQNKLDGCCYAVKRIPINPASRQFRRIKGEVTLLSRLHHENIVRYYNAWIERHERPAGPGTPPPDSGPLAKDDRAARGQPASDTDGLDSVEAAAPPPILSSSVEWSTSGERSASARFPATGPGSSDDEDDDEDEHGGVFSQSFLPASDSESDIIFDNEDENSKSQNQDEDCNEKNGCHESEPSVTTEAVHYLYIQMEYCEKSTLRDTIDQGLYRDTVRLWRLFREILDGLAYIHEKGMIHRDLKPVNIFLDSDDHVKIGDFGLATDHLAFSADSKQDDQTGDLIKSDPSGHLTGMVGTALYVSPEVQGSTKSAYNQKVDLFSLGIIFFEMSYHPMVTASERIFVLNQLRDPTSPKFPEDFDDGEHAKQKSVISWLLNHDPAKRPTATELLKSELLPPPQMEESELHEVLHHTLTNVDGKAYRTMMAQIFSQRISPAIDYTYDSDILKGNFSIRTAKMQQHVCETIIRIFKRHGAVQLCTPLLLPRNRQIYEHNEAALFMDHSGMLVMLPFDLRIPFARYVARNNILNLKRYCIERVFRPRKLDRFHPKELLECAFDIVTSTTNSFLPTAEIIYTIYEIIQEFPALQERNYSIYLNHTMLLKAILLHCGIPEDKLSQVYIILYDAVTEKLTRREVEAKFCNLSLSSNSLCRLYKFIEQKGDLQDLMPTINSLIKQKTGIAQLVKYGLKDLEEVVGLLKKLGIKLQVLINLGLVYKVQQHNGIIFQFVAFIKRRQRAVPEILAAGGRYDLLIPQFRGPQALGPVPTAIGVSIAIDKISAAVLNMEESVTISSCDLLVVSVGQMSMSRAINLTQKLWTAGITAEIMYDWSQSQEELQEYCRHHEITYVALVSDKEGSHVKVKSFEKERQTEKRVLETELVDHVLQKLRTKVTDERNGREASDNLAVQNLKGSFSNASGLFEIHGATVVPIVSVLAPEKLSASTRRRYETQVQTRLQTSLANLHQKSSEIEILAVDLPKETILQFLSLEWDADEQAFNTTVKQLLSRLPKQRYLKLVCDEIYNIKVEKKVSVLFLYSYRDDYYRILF
row,Compound,pKi
1,Cc1n[nH]cc1[C@H]1CN(c2ccnc(-c3cnc4ccc(C(F)(F)F)cn34)n2)C[C@@H](C)O1 (relative stereo),> 8.00
2,C[C@@H]1CN(c2nccc(-c3cnc4ccc(C(F)(F)F)cn34)n2)C[C@H](c2cn[nH]c2)O1 (relative stereo),> 8.00
3,C[C@H]1C[C@@H](c2cn[nH]c2)CN(c2nccc(-c3cnc4ccc(C(F)(F)F)cn34)n2)C1 (mixture of isomers),> 8.00

# More lines, now with the values ahead:
row,pKi,Compound
1,> 8.00,Cc1[nH]ncc1[C@H]1CN(c2nccc(-c3cnc4ccc(C(F)(F)F)cn34)n2)C[C@@H](C)O1 (relative stereo)
2,> 8.00,Cc1[nH]ncc1[C@@H]1CN(c2nccc(-c3cnc4ccc(C(F)(F)F)cn34)n2)C[C@H](C)O1
